# Data as given in patent US9676714B2, “Sulfonylindole derivatives and method for preparing the same” (Daewoong Pharmaceutical Co., Ltd., priority 2013, dated 2017).
# Structures can show the parent of a compound that is named as a salt.
# Molecular target: T1, proton pump (H+/K+-ATPase) (Sus scrofa, UniProt P19156)
# T1 construct: Gastric vesicles were prepared from hog stomach via centrifugal separation; from tissue; host or cells: hog stomach (gastric vesicles, method of Rabon et al. 1988)
# Assay: Measurement of inhibitory effects on proton pump (H+/K+-ATPase) activities
# Assay type: biochemical
# Conditions: hog gastric vesicles, K+-specific H+/K+-ATPase activity, Tris-HCl buffer pH 7.4, 37° C. for 40 minutes, malachite green Pi readout
# In short: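 Hog gastric vesicles in 60 mmol/l Tris-HCl pH 7.4 with 0.5% DMSO were treated with compounds at room temperature; reaction was started with 10 μl of 10 mmol/l ATP stock. Released Pi was read at 570 nm, K+-specific activity taken as the ±K+ difference. IC50 from 4-parameter logistic fit.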
# T1 sequence (P19156 whole entry): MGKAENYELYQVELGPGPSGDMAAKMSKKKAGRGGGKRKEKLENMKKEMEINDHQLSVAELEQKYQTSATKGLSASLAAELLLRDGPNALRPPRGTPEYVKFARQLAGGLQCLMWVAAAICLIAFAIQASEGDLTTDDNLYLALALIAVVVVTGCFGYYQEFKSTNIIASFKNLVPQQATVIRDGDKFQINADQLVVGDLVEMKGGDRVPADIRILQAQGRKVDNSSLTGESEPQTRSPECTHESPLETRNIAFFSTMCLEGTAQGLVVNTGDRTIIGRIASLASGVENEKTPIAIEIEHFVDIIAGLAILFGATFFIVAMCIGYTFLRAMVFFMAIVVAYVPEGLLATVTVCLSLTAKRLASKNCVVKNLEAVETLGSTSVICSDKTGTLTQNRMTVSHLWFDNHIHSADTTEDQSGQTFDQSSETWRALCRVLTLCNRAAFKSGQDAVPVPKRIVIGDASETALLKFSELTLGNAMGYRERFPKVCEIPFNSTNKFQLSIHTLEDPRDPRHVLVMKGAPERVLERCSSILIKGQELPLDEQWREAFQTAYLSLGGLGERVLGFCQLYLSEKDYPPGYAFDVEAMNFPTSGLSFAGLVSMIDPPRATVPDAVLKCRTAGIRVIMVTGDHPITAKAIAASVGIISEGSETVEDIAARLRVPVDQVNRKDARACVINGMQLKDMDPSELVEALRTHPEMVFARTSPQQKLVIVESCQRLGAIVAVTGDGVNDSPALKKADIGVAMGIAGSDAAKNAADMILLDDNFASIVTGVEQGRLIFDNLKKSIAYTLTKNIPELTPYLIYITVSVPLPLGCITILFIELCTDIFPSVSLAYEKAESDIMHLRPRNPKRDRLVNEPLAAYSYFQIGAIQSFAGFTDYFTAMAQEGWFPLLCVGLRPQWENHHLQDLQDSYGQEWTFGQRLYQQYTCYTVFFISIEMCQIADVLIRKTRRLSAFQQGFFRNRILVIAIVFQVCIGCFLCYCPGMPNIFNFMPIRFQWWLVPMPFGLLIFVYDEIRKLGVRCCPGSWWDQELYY
# T1 sequence (P18434 whole entry partner): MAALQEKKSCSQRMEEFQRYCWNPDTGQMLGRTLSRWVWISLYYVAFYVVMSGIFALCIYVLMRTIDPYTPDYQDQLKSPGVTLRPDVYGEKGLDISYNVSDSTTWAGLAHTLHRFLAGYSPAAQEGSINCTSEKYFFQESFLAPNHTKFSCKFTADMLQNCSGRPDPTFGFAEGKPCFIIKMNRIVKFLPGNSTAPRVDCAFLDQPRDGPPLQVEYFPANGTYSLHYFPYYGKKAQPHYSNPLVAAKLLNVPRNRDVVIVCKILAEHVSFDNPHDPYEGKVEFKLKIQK
row,SMILES,IC50 [nM]
1,"CNCc1cn(S(=O)(=O)c2ccc(OC(F)(F)F)cc2)c2cc(Nc3ccc(C)cc3Cl)ccc12 [Example 207, N-(2-chloro-4-methylphenyl)-3-((methylamino)methyl)-1-((4-(trifluoromethoxy)phenyl)sulfonyl)-1H-indol-6-amine hydrochloride]",550
2,"CNCc1cn(S(=O)(=O)c2ccc(OC(F)(F)F)cc2)c2cc(Nc3ccc(OC(F)(F)F)cc3C)ccc12 [Example 209, N-(2-methyl-4-(trifluoromethoxy)phenyl)-3-((methylamino)methyl)1-((4-(trifluoromethoxy)phenyl)sulfonyl)-1H-indol-6-amine hydrochloride]",1060
3,"CNCc1cn(S(=O)(=O)c2cncc(F)c2)c2cc(Nc3ccc(OC(F)(F)F)cc3Cl)ccc12 [Example 215, N-(2-chloro-4-(trifluoromethoxy)phenyl)-1-((5-fluoropyridin-3-yl)sulfonyl)-3-((methylamino)methyl)-1H-indol-6-amine hydrochloride]",820
4,"CNCc1cn(S(=O)(=O)c2ccc(OC)cc2)c2cc(Nc3ccc(C)cc3Cl)ccc12 [Example 219, N-(2-chloro-4-methylphenyl)-1-((4-methoxyphenyl)sulfonyl)-3-((methylamino)methyl)-1H-indol-6-amine hydrochloride]",270
5,"CNCc1cn(S(=O)(=O)c2ccc(OC(F)F)cc2)c2cc(Nc3ccc(C)cc3Cl)ccc12 [Example 220, N-(2-chloro-4-methylphenyl)-1-((4-(difluoromethoxy)phenyl)sulfonyl)-3-((methylamino)methyl)-1H-indol-6-amine hydrochloride]",290
6,"CNCc1cn(S(=O)(=O)c2ccc(C(F)(F)F)cc2)c2cc(Nc3ccc(C)cc3Cl)ccc12 [Example 221, N-(2-chloro-4-methylphenyl)-3-((methylamino)methyl)-1-((4-(trifluoromethyl)phenyl)sulfonyl)-1H-indol-6-amine hydrochloride]",1580
7,"CNCc1cn(S(=O)(=O)c2ccccc2)c2cc(Nc3ccc(C)cc3F)ccc12 [Example 222, N-(2-fluoro-4-methylphenyl)-3-((methylamino)methyl)-1-(phenylsulfonyl)-1H-indol-6-amine hydrochloride]",1840
8,"CNCc1cn(S(=O)(=O)c2ccccc2C)c2cc(Nc3ccc(C)cc3F)ccc12 [Example 223, N-(2-fluoro-4-methylphenyl)-3-((methylamino)methyl)-1-(o-tolylsulfonyl)-1H-indol-6-amine hydrochloride]",1290
9,"CNCc1cn(S(=O)(=O)c2ccccc2F)c2cc(Nc3ccc(C)cc3F)ccc12 [Example 224, N-(2-fluoro-4-methylphenyl)-1-((2-fluorophenyl)sulfonyl)-3-((methylamino)methyl)-1H-indol-6-amine hydrochloride]",3300
10,"CNCc1cn(S(=O)(=O)c2ccccc2Cl)c2cc(Nc3ccc(C)cc3F)ccc12 [Example 225, 1-((2-chlorophenyl)sulfonyl)-N-(2-fluoro-4-methylphenyl)-3-((methylamino)methyl)-1H-indol-6-amine hydrochloride]",2060
11,"CNCc1cn(S(=O)(=O)c2cccc(C#N)c2)c2cc(Nc3ccc(C)cc3F)ccc12 [Example 227, 3-((6-((2-fluoro-4-methylphenyl)amino)-3-((methylamino)methyl)-1H-indol-1-yl)sulfonyl)benzonitrile hydrochloride]",6490
12,"CNCc1cn(S(=O)(=O)c2cccc(Br)c2)c2cc(Nc3ccc(C)cc3F)ccc12 [Example 228, 1-((3-bromophenyl)sulfonyl)-N-(2-fluoro-4-methylphenyl)-3-((methylamino)methyl)-1H-indol-6-amine hydrochloride]",900
13,"CNCc1cn(S(=O)(=O)c2ccc(C)cc2)c2cc(Nc3ccc(C)cc3F)ccc12 [Example 229, N-(2-fluoro-4-methylphenyl)-3-((methylamino)methyl)-1-tosyl-1H-indol-6-amine hydrochloride]",1110
14,"CNCc1cn(S(=O)(=O)c2ccc(Cl)cc2)c2cc(Nc3ccc(C)cc3F)ccc12 [Example 230, 1-((4-chlorophenyl)sulfonyl)-N-(2-fluoro-4-methylphenyl)-3-((methylamino)methyl)-1H-indol-6-amine hydrochloride]",910
15,"CNCc1cn(S(=O)(=O)c2ccc(C(C)(C)C)cc2)c2cc(Nc3ccc(C)cc3F)ccc12 [Example 231, 1-((4-(tert-butyl)phenyl)sulfonyl)-N-(2-fluoro-4-methylphenyl)-3-((methylamino)methyl)-1H-indol-6-amine hydrochloride]",2620
16,"CNCc1cn(S(=O)(=O)c2ccc(-c3ccccc3)cc2)c2cc(Nc3ccc(C)cc3F)ccc12 [Example 232, 1-([1,1′-biphenyl]-4-ylsulfonyl)-N-(2-fluoro-4-methylphenyl)-3-((methylamino)methyl)-1H-indol-6-amine hydrochloride]",2150
17,"CNCc1cn(S(=O)(=O)c2cccc3ccccc23)c2cc(Nc3ccc(C)cc3F)ccc12 [Example 233, N-(2-fluoro-4-methylphenyl)-3-((methylamino)methyl)-1-(naphthalen-1-ylsulfonyl)-1H-indol-6-amine hydrochloride]",2850

row,SMILES,IC50 [nM]
1,"CNCc1cn(S(=O)(=O)c2cccc(Cl)c2Cl)c2cc(Nc3ccc(C)cc3F)ccc12 [Example 234, 1-((2,3-dichlorophenyl)sulfonyl)-N-(2-fluoro-4-methylphenyl)-3-((methylamino)methyl)-1H-indol-6-amine hydrochloride]",1470
2,"CNCc1cn(S(=O)(=O)c2ccc(Cl)cc2Cl)c2cc(Nc3ccc(C)cc3F)ccc12 [Example 235, 1-((2,4-dichlorophenyl)sulfonyl)-N-(2-fluoro-4-methylphenyl)-3-((methylamino)methyl)-1H-indol-6-amine hydrochloride]",2890
3,"CNCc1cn(S(=O)(=O)c2cc(C)ccc2C)c2cc(Nc3ccc(C)cc3F)ccc12 [Example 236, 1-((2,5-dimethylphenyl)sulfonyl)-N-(2-fluoro-4-methylphenyl)-3-((methylamino)methyl)-1H-indol-6-amine hydrochloride]",2040
4,"CNCc1cn(S(=O)(=O)c2ccc(F)c(F)c2)c2cc(Nc3ccc(C)cc3F)ccc12 [Example 237, 1-((3,4-difluorophenyl)sulfonyl)-N-(2-fluoro-4-methylphenyl)-3-((methylamino)methyl)-1H-indol-6-amine hydrochloride]",990
5,"CNCc1cn(S(=O)(=O)c2ccc(Cl)c(Cl)c2)c2cc(Nc3ccc(C)cc3F)ccc12 [Example 238, 1-((3,4-dichlorophenyl)sulfonyl)-N-(2-fluoro-4-methylphenyl)-3-((methylamino)methyl)-1H-indol-6-amine hydrochloride]",2560
6,"CNCc1cn(S(=O)(=O)c2cc(C)cc(C)c2)c2cc(Nc3ccc(C)cc3F)ccc12 [Example 239, 1-((3,5-dimethylphenyl)sulfonyl)-N-(2-fluoro-4-methylphenyl)-3-((methylamino)methyl)-1H-indol-6-amine hydrochloride]",1750
7,"CNCc1cn(S(=O)(=O)c2ccc(Cl)c(Cl)c2Cl)c2cc(Nc3ccc(C)cc3F)ccc12 [Example 240, N-(2-fluoro-4-methylphenyl)-3-((methylamino)methyl)-1-((2,3,4-trichlorophenyl)sulfonyl)-1H-indol-6-amine hydrochloride]",1670
8,"CNCc1cn(S(=O)(=O)c2cncc(Br)c2)c2cc(Nc3ccc(C)cc3F)ccc12 [Example 241, 1-((5-bromopyridin-3-yl)sulfonyl)-N-(2-fluoro-4-methylphenyl)-3-((methylamino)methyl)-1H-indol-6-amine hydrochloride]",2190
9,"CNCc1cn(S(=O)(=O)c2ccc(OC)nc2)c2cc(Nc3ccc(C)cc3F)ccc12 [Example 242, N-(2-fluoro-4-methylphenyl)-1-((6-methoxypyridin-3-yl)sulfonyl)-3-((methylamino)methyl)-1H-indol-6-amine hydrochloride]",3850
10,"CNCc1cn(S(=O)(=O)c2cccnc2)c2cc(-c3ccccc3)ccc12 [Example 243, N-methyl-1-(6-phenyl-1-(pyridin-3-ylsulfonyl)-1H-indol-3-yl)methanamine]",7140
11,"CNCc1cn(S(=O)(=O)c2cccnc2)c2cc(-c3cccc(Cl)c3)ccc12 [Example 244, 1-(6-(3-chlorophenyl)-1-(pyridin-3-ylsulfonyl)-1H-indol-3-yl)-N-methylmethanamine]",2440
12,"CNCc1cn(S(=O)(=O)c2cccnc2)c2cc(-c3cccc(NC(C)=O)c3)ccc12 [Example 245, N-(3-(3-((methylamino)methyl)-1-(pyridin-3-ylsulfonyl)-1H-indol-6-yl)phenyl)acetamide]",12900
13,"CNCc1cn(S(=O)(=O)c2cccnc2)c2cc(-c3ccc(N)cc3)ccc12 [Example 246, 4-(3-((methylamino)methyl)-1-(pyridin-3-ylsulfonyl)-1H-indol-6-yl)aniline]",530
14,"CNCc1cn(S(=O)(=O)c2cccnc2)c2cc(-c3ccc(-c4ccccc4)cc3)ccc12 [Example 247, 1-(6-([1,1′-biphenyl]-4-yl)-1-(pyridin-3-ylsulfonyl)-1H-indol-3-yl)-N-methylmethanamine]",4150
15,"CNCc1cn(S(=O)(=O)c2cccnc2)c2cc(-c3ccc(OC)nc3)ccc12 [Example 248, 1-(6-(6-methoxypyridin-3-yl)-1-(pyridin-3-ylsulfonyl)-1H-indol-3-yl)-N-methylmethanamine]",20000
16,"CNCc1cn(S(=O)(=O)c2cccnc2)c2cc(-c3cnn(C)c3)ccc12 [Example 249, N-methyl-1-(6-(1-methyl-1H-pyrazol-4-yl)-1-(pyridin-3-ylsulfonyl)-1H-indol-3-yl)methanamine]",50000
